The values that follow come from ChEMBL document CHEMBL1201862, “PubChem BioAssay data set” (2004).

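Method: 48-hour compound exposure of cells in 96-well plates, five concentrations, linear interpolation of endpoints. GI50: concentration for 50% inhibition of growth.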 The source made the active and inactive calls. No stated cut-off is given here; in the data, active = GI50 up to about 1.1 µM and inactive = higher.

Test systems include A549; COLO 205; HCT-116; HL-60; HOP-62; IGROV-1; KM12; LOX IMVI; Malme-3M; NCI-H226; NCI-H23; NCI-H460; NCI/ADR-RES; OVCAR-3; RPMI-8226; SK-MEL-5; SNB-19.
What all share (assay): NCI-60 cell line screen, 48 h

For the compound `CC(=O)OCC(C)C1=C(O)C(=O)C2(C)C/C=C(/C)CC/C=C(\C)CCC(O)C(C)CCC12` (stereo unspecified), the GI50 is 18 µM (inactive) with A549; 17.1 µM (inactive) in the assay on COLO 205; 18.8 µM (inactive) in the assay on HCT-116; 17.5 µM (inactive) with HL-60; 17 µM (inactive) in the assay on HOP-62; 15.2 µM (inactive) in the assay with IGROV-1. Moreover, the GI50 is 14.2 µM (inactive) in the assay with KM12; 18.1 µM (inactive) in the assay with LOX IMVI; 17.4 µM (inactive) in the assay on Malme-3M; 17.6 µM (inactive) in the assay on NCI-H226; 17.8 µM (inactive) in the assay on NCI-H23; 14.7 µM (inactive) with NCI-H460. Further, the GI50 in the assay with NCI/ADR-RES was 21.1 µM (inactive); with OVCAR-3, 15.1 µM (inactive); in the assay on RPMI-8226 it was 11.9 µM (inactive); in the assay on SK-MEL-5, 17.7 µM (inactive); with SNB-19, 18.4 µM (inactive).
With `CC(C)=CCc1ccc2[nH]c3c(c2c1)C(=O)C(=O)C(C)=C3C(O)C(C)O` (stereo unspecified), the GI50 is 21.8 µM (inactive) in the assay on A549; 2.16 µM (inactive) in the assay on COLO 205; 1.78 µM (inactive) in the assay on HCT-116; 0.769 µM (active) in the assay with HL-60; 20.3 µM (inactive) with HOP-62; 2.36 µM (inactive) in the assay on IGROV-1. In addition, the GI50 in the assay on KM12 is 16.5 µM (inactive); in the assay with LOX IMVI, 2 µM (inactive); with Malme-3M, 1.78 µM (inactive); with NCI-H226, 15.1 µM (inactive); in the assay with NCI-H23, 5.4 µM (inactive); with NCI-H460 it was 14.1 µM (inactive). In addition, the GI50 in the assay on NCI/ADR-RES was 15.1 µM (inactive); in the assay on OVCAR-3, 2.96 µM (inactive); in the assay on RPMI-8226, 1.82 µM (inactive); in the assay on SK-MEL-5, 2.45 µM (inactive); with SNB-19 it was 17 µM (inactive).
Take `O=C1C2=Cc3ccccc3OC2(O)Oc2ccccc21` (stereo unspecified): the GI50 with A549, in the assay with COLO 205, in the assay with HCT-116, in the assay on HOP-62, in the assay with IGROV-1 and with KM12 was > 100 µM (inactive) throughout. The GI50 was > 100 µM (inactive) in the assay on LOX IMVI; > 100 µM (inactive) in the assay on Malme-3M; > 100 µM (inactive) with NCI-H226; > 100 µM (inactive) in the assay on NCI-H23; > 100 µM (inactive) in the assay on NCI/ADR-RES; 91.2 µM (inactive) in the assay with OVCAR-3. For the same compound, the GI50 with RPMI-8226 and in the assay on SK-MEL-5 was > 100 µM (inactive) in each case.
In the case of `O=C(CSCC(=O)N/N=C\c1cccc([N+](=O)[O-])c1)N/N=C\c1cccc([N+](=O)[O-])c1`, the GI50 was 66.5 µM (inactive) with A549; > 100 µM (inactive) in the assay with COLO 205; 27.7 µM (inactive) in the assay on HCT-116; > 100 µM (inactive) with HL-60; 2.01 µM (inactive) in the assay with HOP-62; 23.1 µM (inactive) in the assay on IGROV-1. Further, the GI50 was > 100 µM (inactive) in the assay with KM12; 53.1 µM (inactive) in the assay with LOX IMVI; 21 µM (inactive) in the assay on Malme-3M; > 100 µM (inactive) in the assay with NCI-H226; 14.2 µM (inactive) with NCI-H23; 69.2 µM (inactive) in the assay with NCI-H460. Besides, the GI50 in the assay on NCI/ADR-RES is 19.2 µM (inactive); in the assay with OVCAR-3, 22.9 µM (inactive); with RPMI-8226 it was > 100 µM (inactive); in the assay with SK-MEL-5, > 100 µM (inactive); in the assay on SNB-19, 18 µM (inactive).
Regarding `C=C(CN(C)C)C1(c2ccccc2)CC2(CCCC2)C(=O)O1` (stereo unspecified), the GI50 with A549 is > 100 µM (inactive); in the assay on COLO 205 it was 28.2 µM (inactive); with HCT-116, 70.3 µM (inactive); in the assay with HL-60, 23.7 µM (inactive); with HOP-62, > 100 µM (inactive); with IGROV-1 it was > 100 µM (inactive). Besides, the GI50 in the assay with KM12 is > 100 µM (inactive); in the assay with LOX IMVI it was 53 µM (inactive); with Malme-3M, 14.7 µM (inactive); in the assay on NCI-H226 it was > 100 µM (inactive); in the assay with NCI-H23, 27.2 µM (inactive); in the assay with NCI-H460, > 100 µM (inactive). Moreover, the GI50 is 38.7 µM (inactive) in the assay with OVCAR-3, 88.3 µM (inactive) in the assay with RPMI-8226, > 100 µM (inactive) in the assay on SK-MEL-5 and > 100 µM (inactive) with SNB-19.
